According to ChEMBL document CHEMBL3217707, “A matched molecular pair analysis of in vitro human microsomal metabolic stability measurements for heterocyclic replacements of di-substituted benzene containing compounds identification of those isosteres more likely to have beneficial effects” (Medchemcomm, 2012):

Tests used:
[1] = Intrinsic clearance in human liver microsomes after 30 mins; type: ADME; settings: read-out: CLH
[2] = Lipophilicity, log D of the compound at pH 7.4; settings: buffer

Row | microsomal CLint [1] [µL/min/mg] | logD [2] | SMILES
1 | 62.6 | 3.9 | CC(C)(C)OC(=O)N1CCN(c2ccc(OCc3ccc(S(C)(=O)=O)cc3)cc2)CC1
2 | 247 | 3.2 | CC(C)(C)OC(=O)N1CCN(c2ccc(OCc3ccc(S(C)(=O)=O)cc3)cn2)CC1
3 | 105 |  | CC(C)(C)OC(=O)N1CCN(c2ccc(OCc3ccc(S(C)(=O)=O)cc3)nc2)CC1
4 | 29.9 | 3.4 | CC(C)(C)OC(=O)N1CCN(c2cnc(OCc3ccc(S(C)(=O)=O)cc3)cn2)CC1
5 | 86.8 |  | CC(C)(C)OC(=O)N1CCN(c2cnc(OCc3ccc(S(C)(=O)=O)cc3)nc2)CC1
6 | 131 | 2.9 | CC(C)(C)OC(=O)N1CCN(c2ncc(OCc3ccc(S(C)(=O)=O)cc3)nn2)CC1
7 | 60 |  | CC(C)(C)OC(=O)N1CCN(c2ncc(OCc3ccc(S(C)(=O)=O)cc3)cn2)CC1
8 | 139 | 2.8 | CC(C)(C)OC(=O)N1CCN(c2ccc(OCc3ccc(S(C)(=O)=O)cc3)nn2)CC1
